Laboratory results from patent US12528802B2, “Heterocyclic compound” (Takeda Pharmaceutical Company Limited, priority 2019, dated 2026).

Molecular target: T1, glucosylceramide synthase (Homo sapiens, UniProt Q16739)
T1 construct: made in house; host or cells: Expi293F cells (transient expression, pcDNA3.3-TOPO vector); microsome fraction used as enzyme source
T1 sequence (Q16739 1-394): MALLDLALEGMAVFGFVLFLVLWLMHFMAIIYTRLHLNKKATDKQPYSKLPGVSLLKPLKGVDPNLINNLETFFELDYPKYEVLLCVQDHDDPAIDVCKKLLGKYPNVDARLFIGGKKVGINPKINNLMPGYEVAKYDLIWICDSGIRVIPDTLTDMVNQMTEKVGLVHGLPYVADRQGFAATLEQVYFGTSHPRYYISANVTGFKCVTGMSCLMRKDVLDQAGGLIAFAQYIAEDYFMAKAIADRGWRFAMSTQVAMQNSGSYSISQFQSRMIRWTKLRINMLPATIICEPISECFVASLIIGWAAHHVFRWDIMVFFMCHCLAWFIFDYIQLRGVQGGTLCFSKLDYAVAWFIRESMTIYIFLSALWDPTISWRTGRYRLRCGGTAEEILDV
Experiment: Glucosylceramide synthase (GCS) enzyme assay, microsome fraction, C8 glucosylceramide quantified by Rapidfire MS/MS
Type: biochemical
Details: test compound 10 μM; 1.7 μM UDP-glucose, 3 μM C8 ceramide; room temperature 60 min; read-out: GCS enzyme inhibitory rate at 10 μM (%) (% of control)
Method in brief: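 Test compound, 10 μM final, was run against human GCS from transfected Expi293F microsome fractions, using substrate solution of 6 μM C8 ceramide (in DOPC liposomes) plus 3.4 μM UDP-glucose, pH 7.5 Tris buffer, 60 min, room temperature. Product C8 glucosylceramide measured by Rapidfire MS/MS against an internal standard, % inhibition referenced to no-enzyme and DMSO wells.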

| Compound | inhibition at 10 µM [%] |
| --- | --- |
| O=C1c2ccnc(-c3ccc(F)cc3OCC(F)(F)F)c2CN1c1ccc(C2(O)COC2)cc1 [Example 155, 4-[4-fluoro-2-(2,2,2-trifluoroethoxy)phenyl]-2-[4-(3-hydroxyoxetan-3-yl)phenyl]-2,3-dihydro-1H-pyrrolo[3,4-c]pyridin-1-one] | 93 |
| CCS(=O)(=O)c1ccc(N2Cc3c(ccnc3-c3ccccc3OCC(F)(F)F)C2=O)cc1 [Example 160, 2-[4-(ethanesulfonyl)phenyl]-4-[2-(2,2,2-trifluoroethoxy)phenyl]-2,3-dihydro-1H-pyrrolo[3,4-c]pyridin-1-one] | 99 |
| CN(C)C(=O)c1ccc(N2Cc3c(ccnc3-c3ccccc3OCC(F)(F)F)C2=O)cc1 [Example 162, N,N-dimethyl-4-{1-oxo-4-[2-(2,2,2-trifluoroethoxy)phenyl]-1,3-dihydro-2H-pyrrolo[3,4-c]pyridin-2-yl}benzamide] | 95 |
| O=C1c2ccnc(-c3ccc(F)cc3OCC(F)(F)F)c2CN1c1ccc(C2(O)CCC2)cc1 [Example 163, 4-[4-fluoro-2-(2,2,2-trifluoroethoxy)phenyl]-2-[4-(1-hydroxycyclobutyl)phenyl]-2,3-dihydro-1H-pyrrolo[3,4-c]pyridin-1-one] | 100 |
| O=C1c2ccnc(-c3ccc(F)cc3OCC(F)(F)F)c2CN1c1ccc(O[C@H]2CCOC2)cc1 [Example 165, 4-[4-fluoro-2-(2,2,2-trifluoroethoxy)phenyl]-2-(4-{[(3S)-oxolan-3-yl]oxy}phenyl)-2,3-dihydro-1H-pyrrolo[3,4-c]pyridin-1-one] | 98 |
| O=C1c2ccnc(-c3ccc(F)cc3OCC(F)(F)F)c2CN1c1ccc(OC2CCOCC2)nc1 [Example 167, 4-[4-fluoro-2-(2,2,2-trifluoroethoxy)phenyl]-2-{6-[(oxan-4-yl)oxy]pyridin-3-yl}-2,3-dihydro-1H-pyrrolo[3,4-c]pyridin-1-one] | 98 |
| COc1cnccc1-c1nccc2c1CN(c1ccc(F)cc1)C2 [Example 170, 2-(4-fluorophenyl)-4-(3-methoxypyridin-4-yl)-2,3-dihydro-1H-pyrrolo[3,4-c]pyridine] | 88 |
| CC(C)(C#N)COc1cc(F)ccc1-c1nccc2c1CN(c1ccc(OC(F)F)nc1)C2=O [Example 171, 3-(2-{2-[6-(difluoromethoxy)pyridin-3-yl]-1-oxo-2,3-dihydro-1H-pyrrolo[3,4-c]pyridin-4-yl}-5-fluorophenoxy)-2,2-dimethylpropanenitrile] | 52 |
| COc1ccccc1-c1nccc2c1CN(c1ccc(F)cc1)C2 [Example 172, 2-(4-fluorophenyl)-4-(2-methoxyphenyl)-2,3-dihydro-1H-pyrrolo[3,4-c]pyridine] | 91 |
| O=C1c2ccnc(-c3ccc(F)cc3OCCOC(F)(F)F)c2CN1c1ccc(OC(F)F)nc1 [Example 174, 2-[6-(difluoromethoxy)pyridin-3-yl]-4-{4-fluoro-2-[2-(trifluoromethoxy)ethoxy]phenyl}-2,3-dihydro-1H-pyrrolo[3,4-c]pyridin-1-one] | 99 |
| Cc1cncc(OCC(F)(F)F)c1-c1nccc2c1CN(c1ccc(OC(F)F)cc1)C2=O [Example 175, 2-[4-(difluoromethoxy)phenyl]-4-[3-methyl-5-(2,2,2-trifluoroethoxy)pyridin-4-yl]-2,3-dihydro-1H-pyrrolo[3,4-c]pyridin-1-one ditrifluoroacetate] | 100 |
| O=C1C2=C(CN1c1ccc(OCC(F)(F)F)cc1)C(c1ccc(F)cc1OCC(F)(F)F)=NCCN2 [Example 176, 5-[4-fluoro-2-(2,2,2-trifluoroethoxy)phenyl]-7-[4-(2,2,2-trifluoroethoxy)phenyl]-2,3,6,7-tetrahydropyrrolo[3,4-e][1,4]diazepin-8(1H)-one] | 100 |
| O=C1c2ccnc(-c3ccc(F)cc3OCC(F)(F)F)c2CN1c1ccc(N2CCOCC2)nc1 [Example 177, 4-[4-fluoro-2-(2,2,2-trifluoroethoxy)phenyl]-2-[6-(morpholin-4-yl)pyridin-3-yl]-2,3-dihydro-1H-pyrrolo[3,4-c]pyridin-1-one] | 98 |
| COC1(c2ccc(N3Cc4c(ccnc4-c4ccc(F)cc4OCC(F)(F)F)C3=O)cc2)COC1 [Example 178, 4-[4-fluoro-2-(2,2,2-trifluoroethoxy)phenyl]-2-[4-(3-methoxyoxetan-3-yl)phenyl]-2,3-dihydro-1H-pyrrolo[3,4-c]pyridin-1-one] | 98 |
| CN1CCN=C(c2ccc(F)cc2OCC(F)(F)F)C2=C1C(=O)N(c1ccc(OCC(F)(F)F)cc1)C2 [Example 179, 5-[4-fluoro-2-(2,2,2-trifluoroethoxy)phenyl]-1-methyl-7-[4-(2,2,2-trifluoroethoxy)phenyl]-2,3,6,7-tetrahydropyrrolo[3,4-e][1,4]diazepin-8(1H)-one] | 91 |
| CC(C)(O)c1ccc(N2Cc3c(ccnc3-c3ccccc3OCC(F)(F)F)C2=O)cn1 [Example 184, 2-[6-(2-hydroxypropan-2-yl)pyridin-3-yl]-4-[2-(2,2,2-trifluoroethoxy)phenyl]-2,3-dihydro-1H-pyrrolo[3,4-c]pyridin-1-one] | 96 |
| O=C1c2ncnc(-c3ccc(F)cc3OCC(F)(F)F)c2CN1c1ccc(F)cc1 [Example 185, 6-(4-fluorophenyl)-4-[4-fluoro-2-(2,2,2-trifluoroethoxy)phenyl]-5,6-dihydro-7H-pyrrolo[3,4-d]pyrimidin-7-one] | 71 |

Now from value to molecule:

| inhibition at 10 µM [%] | Compound |
| --- | --- |
| 94 | N#Cc1ccc(N2Cc3ccnc(-c4ccc(F)cc4OCC(F)(F)F)c3C2)nc1 [Example 156, 6-{4-[4-fluoro-2-(2,2,2-trifluoroethoxy)phenyl]-1,3-dihydro-2H-pyrrolo[3,4-c]pyridin-2-yl}pyridine-3-carbonitrile] |
| 98 | CS(=O)(=O)c1ccc(N2Cc3c(ccnc3-c3ccccc3OCC(F)(F)F)C2=O)cc1 [Example 161, 2-[4-(methanesulfonyl)phenyl]-4-[2-(2,2,2-trifluoroethoxy)phenyl]-2,3-dihydro-1H-pyrrolo[3,4-c]pyridin-1-one] |
| 99 | O=C1c2ccnc(-c3ccc(F)cc3OCC(F)(F)F)c2CN1c1ccc(O[C@@H]2CCOC2)cc1 [Example 164, 4-[4-fluoro-2-(2,2,2-trifluoroethoxy)phenyl]-2-(4-{[(3R)-oxolan-3-yl]oxy}phenyl)-2,3-dihydro-1H-pyrrolo[3,4-c]pyridin-1-one] |
| 87 | O=C(c1ccc(N2Cc3c(ccnc3-c3ccc(F)cc3OCC(F)(F)F)C2=O)cc1)N1CCC1 [Example 166, 2-[4-(azetidine-1-carbonyl)phenyl]-4-[4-fluoro-2-(2,2,2-trifluoroethoxy)phenyl]-2,3-dihydro-1H-pyrrolo[3,4-c]pyridin-1-one] |
| 100 | Fc1ccc(N2Cc3ccnc(-c4ccccc4OCC(F)(F)F)c3C2)cc1 [Example 168, 2-(4-fluorophenyl)-4-[2-(2,2,2-trifluoroethoxy)phenyl]-2,3-dihydro-1H-pyrrolo[3,4-c]pyridine] |
| 95 | Fc1ccc(N2Cc3ccnc(-c4ccc(F)cc4OCC(F)(F)F)c3C2)nc1 [Example 169, 2-(5-fluoropyridin-2-yl)-4-[4-fluoro-2-(2,2,2-trifIuoroethoxy)phenyl]-2,3-dihydro-1H-pyrrolo[3,4-c]pyridine] |
| 92 | O=C(c1ccc(N2Cc3c(ccnc3-c3ccc(F)cc3OCC(F)(F)F)C2=O)cc1)N1CCCC1 [Example 180, 4-[4-fluoro-2-(2,2,2-trifluoroethoxy)phenyl]-2-[4-(pyrrolidine-1-carbonyl)phenyl]-2,3-dihydro-1H-pyrrolo[3,4-c]pyridin-1-one] |
| 89 | O=C(c1ccc(N2Cc3c(ccnc3-c3ccc(F)cc3OCC(F)(F)F)C2=O)cc1)N1CC(F)(F)C1 [Example 181, 2-[4-(3,3-difluoroazetidine-1-carbonyl)phenyl]-4-[4-fluoro-2-(2,2,2-trifluoroethoxy)phenyl]-2,3-dihydro-1H-pyrrolo[3,4-c]pyridin-1-one] |
| 99 | O=C(c1ccc(N2Cc3c(ccnc3-c3ccc(F)cc3OCC(F)(F)F)C2=O)cc1)N1CCC(F)(F)CC1 [Example 182, 2-[4-(4,4-difluoropiperidine-1-carbonyl)phenyl]-4-[4-fluoro-2-(2,2,2-trifluoroethoxy)phenyl]-2,3-dihydro-1H-pyrrolo[3,4-c]pyridin-1-one] |
| 83 | COc1ccccc1-n1ncc2c1CN(c1ccc(F)cc1)C2 [Example 183, 5-(4-fluorophenyl)-1-(2-methoxyphenyl)-1,4,5,6-tetrahydropyrrolo[3,4-c]pyrazole] |
| 100 | O=C1c2ccnc(-c3ccccc3OCC(F)(F)F)c2CN1c1ccc(O[C@@H]2CCOC2)cc1 [Example 187, 2-(4-{[(3R)-oxolan-3-yl]oxy}phenyl)-4-[2-(2,2,2-trifluoroethoxy)phenyl]-2,3-dihydro-1H-pyrrolo[3,4-c]pyridin-1-one] |
| 100 | O=C1c2ccnc(-c3ccccc3OCC(F)(F)F)c2CN1c1ccc(O[C@H]2CCOC2)cc1 [Example 188, 2-(4-{[(3S)-oxolan-3-yl]oxy}phenyl)-4-[2-(2,2,2-trifluoroethoxy)phenyl]-2,3-dihydro-1H-pyrrolo[3,4-c]pyridin-1-one] |
